According to PMC2009656 (British Journal of Cancer, 1978):

Tests used:
[1] = test system: isolated liver rough endoplasmic reticulum (RER); assay type: biochemical, rat
[2] = test system: isolated liver rough endoplasmic reticulum (RER); assay type: biochemical, rat; remark: listed apart in the source

| Compound | Degranulation (%) [1] | degranulation obtained from RNA/protein ratios [2] |
| --- | --- | --- |
| ClCOCCl [Bis(Chloromethyl)ether] | 47. % |  |
| NN [Hydrazine] | 2 - 4% |  |
| CCC1(c2ccccc2)C(=O)NC(=O)NC1=O [Phenobarbital] | 0-6% |  |
| Aflatoxin B1 | 1-3% |  |
| EDTA |  | 59.8% |
